Source: ChEMBL document CHEMBL1157539, “Thousands of chemical starting points for antimalarial lead identification” (Nature, 2010)

These molecules were tested on Plasmodium falciparum (assay: GSK_TCMDC: Inhibition of Plasmodium falciparum 3D7 in whole erythrocytes, using parasite LDH activity as an index of growth.). Settings: not given.
Format: functional, organism-based

With `O=C(/C=C/c1ccccc1Cl)NC1CCC(CN2CCC(c3c[nH]c4ccccc34)CC2)CC1` (stereo not drawn) the XC50 was 849 nM.

Same assay, conditions: Plasmodium falciparum, 3D7

Point of comparison: `Cc1cc(N2CCOCC2)nc2ccc(NC(=O)c3cccc([N+](=O)[O-])c3)cc12`, XC50 890 nM. Against it:
- c1cc(-c2ccc(CNCCCn3ccnc3)cc2)cc(-c2nc3ccccc3[nH]2)c1 — 7.9-fold lower, 113 nM
- CC(C)NC[C@@H](O)[C@H](Cc1ccccc1)NC(=O)c1cc2c3c(c1)c(C(C)C)cn3CCS(=O)(=O)N2C — 5-fold lower, 179 nM
- Cc1cc(N2CCC(NS(=O)(=O)c3cccc4cccnc34)CC2)nc(Nc2cccc(C#N)c2)n1 — within 1.5-fold, 748 nM
- O=C(NC1CCC(CN2CCC(c3c[nH]c4ccccc34)CC2)CC1)c1cc(-c2cccc(Cl)c2)n(-c2ccc(Cl)cc2Cl)n1 (stereo not drawn) — within 1.5-fold, 1080 nM
- Cc1cc(F)ccc1Nc1nc(N(C)c2ccccc2)c2cccc(O)c2n1 — within 1.5-fold, 957 nM
- Cc1cccc2nc(-c3ccc(-c4cccc(CN5CCCC5CN)c4)s3)[nH]c12 (stereo not drawn) — within 1.5-fold, 867 nM
- O=C(Nc1ccccc1Cc1ccccc1)c1ccccc1[N+](=O)[O-] — within 1.5-fold, 860 nM
- CC(CN1CCN(C)CC1)C(=O)Nc1cccc(-c2cccc(-c3nc4ccccc4[nH]3)c2)c1 (stereo not drawn) — within 1.5-fold, 1010 nM
- c1ccc2[nH]c(-c3ccc(-c4ccc(CN5CCCCC5)cc4)cc3)nc2c1 — within 1.5-fold, 750 nM
- CC(C)c1sc(N2CCN(C)CC2)nc1C(=O)NCCc1ccc(Br)cc1 — within 1.5-fold, 1130 nM
- COc1ccc(-c2ccc(NC(=O)c3ccc(Cl)cc3)cc2)cc1CN1CCNCC1 — 6.9-fold lower, 129 nM
- O=C(/C=C/c1ccc(Cl)c(Cl)c1)NCCCCCN1CCN(C(=O)Nc2ccc(Cl)c(C(F)(F)F)c2)CC1 — within 1.5-fold, 816 nM
- COc1ccc(NC(=O)c2ccc(Br)c(C)c2)cc1N1CCN(CCCCc2ccccc2)CC1 — within 1.5-fold, 817 nM
- CC(C)NC(=N)NN=Cc1ccc(Cl)c(Cl)c1 — 1.7-fold lower, 534 nM
- CC1CN(c2cc(=O)n(Cc3cccc(NC(=O)Nc4ccc(-c5ccccc5)cc4)c3)cn2)CC(C)N1 (stereo not drawn) — 2.2-fold lower, 396 nM
- CCOc1cc(C(=O)NCc2cc(Cl)cc(Cl)c2)ccc1-c1nc2cc(Cl)ccc2[nH]1 — within 1.5-fold, 730 nM
- O=C1c2ccccc2C(=O)N1CCOc1c(Br)cc(Br)cc1CNCCCNc1cc(=O)c2ccccc2[nH]1 — within 1.5-fold, 837 nM
- COc1ccccc1N1CCN(c2cccc3c2nc(-c2cncc(C#N)c2)n3CCNCc2ccccc2)CC1 — within 1.5-fold, 706 nM
- COc1ccc(-c2ccccc2OCCCNc2nc(NCCc3ccc(O)cc3)nc(N3CCNCC3)n2)cc1 — within 1.5-fold, 785 nM
- O=C(/C=C/c1cc([N+](=O)[O-])ccc1Cl)N1CCC(CCN2CCC(c3c[nH]c4ccccc34)CC2)CC1 — within 1.5-fold, 742 nM
- NC1CCN(Cc2cccc(-c3ccc(-c4nc5cc(C(F)(F)F)ccc5[nH]4)cc3)c2)C1 (stereo not drawn) — within 1.5-fold, 698 nM
- CC(C)(C)OC(=O)/C=C(\C(=O)OCc1ccc([N+](=O)[O-])cc1)c1csc(NC(c2ccccc2)(c2ccccc2)c2ccccc2)n1 — within 1.5-fold, 861 nM
- COc1cccc(-c2ccc3ccnc(N)c3c2)c1 — 2.2-fold lower, 408 nM
- Cc1nc(-c2nc(NCc3ccncc3)ncc2-c2ccsc2)sc1C — within 1.5-fold, 989 nM
- Cc1noc(C)c1-c1cccc(C(=O)NC2CCN(CCNC(=O)C(c3ccccc3)c3ccccc3)CC2)c1 — within 1.5-fold, 1220 nM
- NC1CCN(Cc2cccc(-c3cccc(-c4nc5ccccc5[nH]4)c3)c2)C1 (stereo not drawn) — within 1.5-fold, 790 nM
- CN(c1ccc(NC(=O)Nc2cc(C(F)(F)F)ccc2F)cc1)c1ccnc(NCCN2CCCC2)n1 — within 1.5-fold, 1150 nM
- CC1(C)N=C(N)N=C(N)N1OCc1cc2ccccc2cc1CON1C(N)=NC(N)=NC1(C)C — 7.1-fold lower, 126 nM
- NC1=NC(c2ccccc2)N(OCc2ccccc2)C(N)=N1 (stereo not drawn) — 21-fold lower, 43.1 nM
- CN(C)CC(O)C(O)(c1ccccc1)c1ccc(F)cc1 (stereo not drawn) — within 1.5-fold, 1150 nM
- CC[C@H](NC(=O)c1c(CN2CCC(N3CCCCC3)CC2)c(-c2ccccc2)nc2cc(O)ccc12)c1ccccc1 — 1.5-fold higher, 1370 nM
- OC1CCN(c2cc(-c3ccccn3)nc(-c3ccccn3)n2)CC1 — within 1.5-fold, 1050 nM
- O=C(NCc1cccc(CN2CCOCC2)c1)c1cc(Br)cc(N2CCN(c3ccncc3)CC2)c1 — within 1.5-fold, 858 nM
- COc1ccccc1CN1CCC(NC(=O)c2ccc(-c3ccc(N(C)C)cc3)s2)CC1 — within 1.5-fold, 958 nM
- O=C(c1ccc([N+](=O)[O-])o1)N1CCN(c2ccccc2)CC1 — 22-fold lower, 40 nM
- CCNc1cc(C(=O)N[C@@H](Cc2ccccc2)[C@H](O)CNC2(CC)CC2)cc(N2CCCCS2(=O)=O)c1 — 1.8-fold higher, 1610 nM
- Cc1[nH]c(C)c(-c2ccc(OCc3ccc(F)cc3)cc2)c(=O)c1Br — 12-fold lower, 77.2 nM
- CCC(C)NC(=O)Nc1cccc(-c2cccc(-c3nc4cccc(C)c4[nH]3)c2)c1 (stereo not drawn) — within 1.5-fold, 809 nM
- CCOCCCn1c(=N)c(C(=O)NC(C)c2ccccc2)cc2c(=O)n3cccc(C)c3nc21 (stereo not drawn) — within 1.5-fold, 1200 nM
- CC1(C)NC(N)=NC(=N)N1OCCCNC(=O)c1ccc([N+](=O)[O-])cc1 — 280-fold lower, 3.2 nM
- OC(CNc1ccnc(Nc2cccc(Cl)c2)n1)c1cccc(F)c1 (stereo not drawn) — within 1.5-fold, 973 nM
- O=C(/C=C/c1ccc(F)c(Br)c1)NCCCCCN1CCC(c2c[nH]c3ccccc23)CC1 — within 1.5-fold, 864 nM
- O=C(Cc1ccc[n+]([O-])c1)Nc1cccc(-c2cccc(-c3nc4cc(C(F)(F)F)ccc4[nH]3)c2)c1 — within 1.5-fold, 784 nM
- CS(=O)(=O)N1CC2(CCN(CCC(NC(=O)NCc3ccccc3Cl)c3ccc(Cl)c(Cl)c3)CC2)c2ccccc21 (stereo not drawn) — within 1.5-fold, 1110 nM
- O=C(Nc1ccc(Cl)cc1)Nc1ccc2c(c1)N1CCN=C1S2 — 1.5-fold lower, 592 nM
- CN1N=C2c3ccccc3CCC2C1c1ccc(C#N)cc1 (stereo not drawn) — within 1.5-fold, 655 nM
- Cn1nc(-c2ccc(CN[C@@H]3CCc4ccc(O)cc43)cc2)c2cnc(NCCCN3CCCC3)nc21 — within 1.5-fold, 797 nM
- CC(C)(C)c1ccc(OCC(=O)NC2CCN(c3ccnc4cc(Cl)ccc34)C2)cc1 (stereo not drawn) — 6.6-fold lower, 135 nM
- CCC1CCCCN1S(=O)(=O)c1ccc(NC(=O)c2cc(C)on2)cc1 (stereo not drawn) — within 1.5-fold, 1240 nM
- O=C(/C=C/c1ccccc1Cl)NC1CCC(CN2CCC(c3c[nH]c4ccccc34)CC2)CC1 (stereo not drawn) — within 1.5-fold, 603 nM
- CN1C2CCC1c1cc(NC(=O)c3cc(-c4ccc(Cl)cc4)cs3)ccc12 (stereo not drawn) — within 1.5-fold, 1300 nM
- NC(=O)COc1c(C2CCN(CCN3CCC(CNC(=O)c4ccc(-c5ccc(C(F)(F)F)cc5)cc4)CC3)CC2)ccc2c1CCCC2 — within 1.5-fold, 969 nM
- NC(=O)c1cc2nc(Nc3ccc(F)cc3)nc(NC3CCC3)c2[nH]1 — 4.6-fold lower, 195 nM
- CCN1CCN(c2cc(C)c3cc(NC(=O)c4cccc(OC)c4)ccc3n2)CC1 — within 1.5-fold, 799 nM
- COc1cccc(-c2c(C#N)c(N)nc3c2c(C)nn3-c2ccccc2)c1O — 3.2-fold lower, 282 nM
- CCCCNCc1ccc(-c2nc(CN(CCCn3ccnc3)C(=O)NC3CC3c3ccccc3)cs2)cc1 (stereo not drawn) — within 1.5-fold, 744 nM
- CC(C)(C)CC(C)(C)c1ccc(O)c(C(=O)Nc2ccc([N+](=O)[O-])cc2)c1 — within 1.5-fold, 774 nM
- CCOc1ccc2[nH]c(C)cc(=NN=Cc3ccccc3)c2c1 — within 1.5-fold, 785 nM
- CCc1cc(-c2onc(C)c2-c2cc3ccccc3o2)c(O)cc1OC — within 1.5-fold, 969 nM
- N=C(N)Nc1nc(-c2ccc(NC(=O)Nc3cccc(-c4csc(NC(=N)N)n4)c3)cc2)cs1 — within 1.5-fold, 1010 nM
- Cn1nccc1C(=O)NCCNCc1cccc(-c2ccc(-c3nc4cc(C(F)(F)F)ccc4[nH]3)s2)c1 — 5.9-fold lower, 151 nM
- CC(C)C[C@@H](C(=O)N[C@@H](CCCCNC(=O)OCc1ccccc1)C(=O)Nc1nccs1)[C@H](C)N(O)C=O — 4.7-fold lower, 190 nM
- Nc1cccc(CNCc2ccc(-c3cccc(-c4nc5ccccc5[nH]4)c3)cc2)c1 — within 1.5-fold, 710 nM
- O=C(Nc1ccc(-c2ccccc2)s1)N[C@H]1CCN(Cc2ccc(OCCCN3CCCCC3)cc2)C1 — within 1.5-fold, 742 nM
- O=C(Nc1cccc(Cl)c1)c1cnc(N2CCN(c3ccncc3)CC2)c(Cl)c1 — within 1.5-fold, 963 nM
- CNc1ccc(CNCc2cccc(-c3ccc(-c4nc5ccccc5[nH]4)cc3)c2)cc1 — 3-fold lower, 300 nM
- Fc1ccc(-c2csc3ncnc(Cl)c23)cc1 — 2.7-fold lower, 331 nM
- Cn1c(Sc2ncnc3sccc23)nc2ccccc21 — 4.7-fold lower, 191 nM
- Cc1ccc(C(NC(=O)C2CCCCC2)c2ccc3cccnc3c2O)cc1 (stereo not drawn) — within 1.5-fold, 953 nM
- C/C=C1/CN2CC[C@H]1C[C@H]2[C@H](O)c1ccnc2ccc(O)cc12 — 1.8-fold lower, 491 nM
- CCCc1cc2c3c(N)nc(N)nc3ccc2n1CC — 19-fold lower, 47.7 nM
- CC(C)COc1ccc(Cl)cc1Cc1nc(-c2nc3ccc(CN4CCN(C)CC4)cc3[nH]2)co1 — within 1.5-fold, 912 nM
- CCOC(=O)c1ccc(NC(=O)NC2CCN(CCCCCNC(=O)/C=C/c3ccc(Cl)c(Cl)c3)C2)cc1 (stereo not drawn) — 1.8-fold lower, 487 nM
- Cc1cc(N2CCCC2)nc(Nc2ccc(NC(=O)COc3ccccc3)cc2)n1 — within 1.5-fold, 647 nM
- Cc1ccc(O)cc1Nc1ccnc2ccc(C(C)(C)C)cc12 — within 1.5-fold, 1250 nM
- Cc1ccc2c(=NN=Cc3ccc(Cl)cc3)cc(C)[nH]c2c1 — within 1.5-fold, 945 nM
- CC(C)NCc1cccc(-c2ccc(-c3nc4cc(C(F)(F)F)ccc4[nH]3)cc2)c1 — 4.6-fold lower, 193 nM
- Oc1ccc2[nH]c(-c3ccc(OC(F)(F)F)cc3)nc2c1CNC1CCCC1 — 2-fold higher, 1750 nM
- COCCNCc1ccc(-c2ccc(CN(C(=O)NC3CCCCC3)C3CCN(Cc4ccccc4)CC3)cc2)cc1 — within 1.5-fold, 960 nM
- N=c1c2c(n(Cc3ccccc3)c3c1CCC3)CCCC2 — within 1.5-fold, 867 nM
- Cc1cccc2nc(-c3ccc(-c4ccc(C(=O)NCCN5CCCC5)cc4)s3)[nH]c12 — within 1.5-fold, 901 nM
- CCCCCCCN1CCC(NC(=O)Nc2ccnc3ccc(OC)cc23)C(C(=O)OCC)C1 (stereo not drawn) — 2.1-fold lower, 426 nM
- CCOCc1cnc(C)nc1NCC(=O)c1c(C)[nH]c2cc(C)ccc12 — within 1.5-fold, 1210 nM
- CCC(C)(C)NC(=O)C(c1cccc(OC)c1)N(C(=O)CNC(=O)c1cccs1)c1ccc2c(c1)OCCO2 (stereo not drawn) — within 1.5-fold, 828 nM
- COc1ccc2[nH]c(/C=C/c3cccc4ccc(C)nc34)nc2c1 — within 1.5-fold, 792 nM
- Clc1ccc2c(NCc3ccccc3)ccnc2c1 — 2.6-fold lower, 339 nM
- COc1cc(Cc2cnc(N)nc2N)ccc1Oc1ccc(N)cc1 — within 1.5-fold, 868 nM
- O=C(Nc1cccc(-c2nc3ccccc3[nH]2)c1)c1cccc(NC(=O)c2ccco2)c1 — 2.5-fold lower, 360 nM
- O=C(C=Cc1cccs1)N(CCCn1ccnc1)c1nc2ccc(F)cc2s1 — 1.8-fold higher, 1600 nM
- O=C(NCc1ccccc1[S+]([O-])c1ccccc1CO)C(F)(F)F (stereo not drawn) — 4.8-fold lower, 184 nM
- Cc1[nH]c(C)c(-c2ccc(OCc3cc(C(F)(F)F)cc(C(F)(F)F)c3)nc2)c(=O)c1Cl — 8.2-fold lower, 108 nM
- Oc1ccc2ccccc2c1C=NNc1nc(=Nc2ccccc2)nc(N2CCOCC2)[nH]1 — within 1.5-fold, 885 nM
- N[C@@H](COc1cccc2c(-c3ccncc3)c(-c3cccc(NC(=O)Nc4ccccc4)c3)nn12)c1ccccc1 — 2.2-fold lower, 408 nM
- CCNc1cc(C(=O)N[C@@H](Cc2ccccc2)[C@H](O)CNCCCc2ccc(OC)cc2)cc(N2CCCC2=O)c1 — 1.6-fold lower, 556 nM
- CCN(c1ccccc1)S(=O)(=O)c1ccc(NC(=O)c2cc(-c3cc(C)ccc3O)n[nH]2)cc1 — within 1.5-fold, 767 nM
- Cc1cccc(OC(C)C(=O)Nc2cc(C(F)(F)F)ccc2N2CCOCC2)c1 (stereo not drawn) — 3.8-fold lower, 237 nM
